These results are taken from PubChem BioAssay (NCI).

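How tested: cells in 96-well plates exposed to compound for 48 hours at five concentrations. GI50 = concentration required for 50% inhibition of growth. TGI: concentration producing complete growth inhibition.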 Some results are limits rather than exact numbers.

Test systems include 786-0 renal; MDA-MB-231 breast; KM12 colon; SF-539 CNS; MOLT-4 leukemia; PC-3 prostate; SK-MEL-2 melanoma; SR leukemia; OVCAR-3 ovarian; CCRF-CEM leukemia.
Holding throughout (assay): growth of human tumour cells (NCI), 48 h

Regarding `CC(=O)[O][Sn]([CH2]c1ccccc1)([CH2]c1ccccc1)[CH2]c1ccccc1`, the GI50 was more than 7.05 µM in the experiment with 786-0 renal; more than 9.02 µM with MDA-MB-231 breast; more than 10 µM in the experiment with KM12 colon; more than 5.42 µM in the experiment with SF-539 CNS; more than 10 µM in the experiment with MOLT-4 leukemia; more than 7.52 µM in the experiment on PC-3 prostate. Besides, the GI50 with SK-MEL-2 melanoma was more than 8.34 µM; in the experiment on SR leukemia, 3.76 µM; in the experiment on OVCAR-3 ovarian, more than 6.14 µM; in the experiment with CCRF-CEM leukemia, more than 4.58 µM. Besides, the TGI with 786-0 renal was more than 10 µM; in the experiment with MDA-MB-231 breast, more than 10 µM; with KM12 colon, more than 10 µM; with SF-539 CNS, more than 6.76 µM; in the experiment with MOLT-4 leukemia, more than 10 µM; in the experiment on PC-3 prostate, more than 10 µM. In addition, the TGI in the experiment on SK-MEL-2 melanoma is more than 10 µM; in the experiment on SR leukemia, more than 4.64 µM; with OVCAR-3 ovarian, more than 10 µM; with CCRF-CEM leukemia, more than 6.27 µM.
Consider `COc1ccc(/C=C(\C(=O)NCc2cccnc2)S(=O)(=O)c2ccccc2)cc1OC`, for which the GI50 in the experiment on 786-0 renal is 2.86 µM; in the experiment on MDA-MB-231 breast, 2.93 µM; in the experiment on KM12 colon it was 2.81 µM; in the experiment with SF-539 CNS, 2.49 µM; with MOLT-4 leukemia it was 3.35 µM; in the experiment with PC-3 prostate, 3.5 µM. In addition, the GI50 is 3.01 µM in the experiment with SK-MEL-2 melanoma, 3.3 µM with SR leukemia, 3.22 µM in the experiment with OVCAR-3 ovarian and 2.26 µM in the experiment on CCRF-CEM leukemia. In addition, the TGI is 8.92 µM with 786-0 renal; 10.6 µM in the experiment on MDA-MB-231 breast; 8.61 µM with KM12 colon; 6.74 µM with SF-539 CNS; 89.1 µM with MOLT-4 leukemia; 14.5 µM in the experiment on PC-3 prostate. In addition, the TGI is 12.7 µM in the experiment with SK-MEL-2 melanoma, more than 100 µM in the experiment with SR leukemia, 11.4 µM in the experiment with OVCAR-3 ovarian and 15.8 µM in the experiment on CCRF-CEM leukemia.
Turning to `Cc1cnc(CNC(=O)c2c(=O)c3ccc(N4CCCN(C)CC4)nc3n3c2sc2ccccc23)cn1`, the GI50 in the experiment on 786-0 renal is 6.17 µM; with MDA-MB-231 breast, 2.79 µM; with KM12 colon, 1.5 µM; in the experiment with SF-539 CNS it was 3.76 µM; in the experiment on MOLT-4 leukemia it was 0.0839 µM; with PC-3 prostate it was 4.04 µM. Further, the GI50 is 12.5 µM in the experiment with SK-MEL-2 melanoma, 0.0311 µM in the experiment with SR leukemia, 7.2 µM in the experiment with OVCAR-3 ovarian and 1.96 µM with CCRF-CEM leukemia. The TGI stood at 22.7 µM in the experiment on 786-0 renal; 8.36 µM in the experiment with MDA-MB-231 breast; 10.1 µM in the experiment with KM12 colon; 8.51 µM in the experiment with SF-539 CNS; 10.7 µM in the experiment on MOLT-4 leukemia; 9.7 µM in the experiment with PC-3 prostate. Also, the TGI in the experiment on SK-MEL-2 melanoma was 27 µM; in the experiment with SR leukemia, more than 34.3 µM; in the experiment on OVCAR-3 ovarian, 22 µM; with CCRF-CEM leukemia, 19.9 µM.
Consider `CN1CCc2[nH]nc(-c3n[nH]c4c3CN(C)CC4)c2C1`, for which the TGI in the experiment with 786-0 renal, with MDA-MB-231 breast, in the experiment on KM12 colon, with SF-539 CNS, with MOLT-4 leukemia and in the experiment on PC-3 prostate was more than 100 µM throughout. The TGI with SK-MEL-2 melanoma, with SR leukemia, in the experiment with OVCAR-3 ovarian and in the experiment on CCRF-CEM leukemia was more than 100 µM each time.
As to `C=C1CC[C@@H]2[C@](C)(COC(C)=O)[C@H](OC(C)=O)CC[C@@]2(C)[C@@H]1CC(Nc1ccc(S(=O)(=O)Nc2ccc(Cl)nn2)cc1)C1=CCOC1=O` (stereo not given in full), the GI50 with 786-0 renal is 1.69 µM; with MDA-MB-231 breast, 1.9 µM; with KM12 colon, 1.7 µM; with SF-539 CNS, 1.23 µM; in the experiment with MOLT-4 leukemia, 1.96 µM; with PC-3 prostate it was 2.24 µM. The GI50 is 1.77 µM in the experiment on SK-MEL-2 melanoma, 1.35 µM in the experiment on SR leukemia, 1.22 µM with OVCAR-3 ovarian and 0.465 µM in the experiment with CCRF-CEM leukemia. The TGI in the experiment with 786-0 renal is 3.14 µM; in the experiment on MDA-MB-231 breast, 3.96 µM; in the experiment on KM12 colon it was 3.49 µM; in the experiment on SF-539 CNS, 2.63 µM; in the experiment on MOLT-4 leukemia, more than 100 µM; with PC-3 prostate, 5.25 µM. Further, the TGI with SK-MEL-2 melanoma stood at 3.99 µM; in the experiment on SR leukemia, 8.1 µM; with OVCAR-3 ovarian, 2.51 µM; in the experiment with CCRF-CEM leukemia, 2.6 µM.
`COc1cc(OC)c(C(=O)/C=C/c2cccc(C#N)c2)c(OC)c1`: the GI50 with 786-0 renal was 1.31 µM; in the experiment with MDA-MB-231 breast it was 2 µM; in the experiment on KM12 colon, 1.64 µM; in the experiment with SF-539 CNS, 1.41 µM; in the experiment with MOLT-4 leukemia, 1.13 µM; with PC-3 prostate, 1.71 µM. The GI50 in the experiment with SK-MEL-2 melanoma was 1.49 µM; in the experiment with SR leukemia, 0.241 µM; in the experiment on OVCAR-3 ovarian, 1.75 µM; in the experiment on CCRF-CEM leukemia, 1.03 µM. Further, the TGI in the experiment on 786-0 renal was 5.52 µM; with MDA-MB-231 breast it was 8.08 µM; in the experiment on KM12 colon, 5.97 µM; with SF-539 CNS it was 4.12 µM; with MOLT-4 leukemia, more than 50 µM; in the experiment with PC-3 prostate, 8.26 µM. In addition, the TGI is 6.44 µM with SK-MEL-2 melanoma, more than 50 µM in the experiment on SR leukemia, 6.74 µM in the experiment on OVCAR-3 ovarian and more than 50 µM in the experiment on CCRF-CEM leukemia.
Take `COc1ccc(C2=CC(c3ccc(OC)cc3Br)N3C=CSC3=N2)cc1` (stereo not given): the GI50 in the experiment with 786-0 renal is 13.1 µM; in the experiment with MDA-MB-231 breast, 8.32 µM; in the experiment on KM12 colon, 2.28 µM; in the experiment on SF-539 CNS, 4.61 µM; with MOLT-4 leukemia, 2.93 µM; in the experiment with PC-3 prostate, 6.4 µM. In addition, the GI50 in the experiment with SK-MEL-2 melanoma is 15.2 µM; in the experiment on SR leukemia, 1.73 µM; in the experiment with OVCAR-3 ovarian, 4.11 µM; with CCRF-CEM leukemia, 2.69 µM. The TGI in the experiment on 786-0 renal was determined as 28.7 µM; in the experiment on MDA-MB-231 breast it was 36.2 µM; in the experiment on KM12 colon, 5.06 µM; in the experiment on SF-539 CNS, 17.1 µM; with MOLT-4 leukemia it was 9.64 µM; in the experiment with PC-3 prostate it was 31.9 µM. The TGI in the experiment with SK-MEL-2 melanoma was 31.3 µM; with SR leukemia it was 7.1 µM; with OVCAR-3 ovarian it was 14.8 µM; in the experiment with CCRF-CEM leukemia, more than 100 µM.
Take `O=[N+]([O-])c1ccc(N=Nc2ccc(O)c3ccccc23)cc1`: the GI50 in the experiment on 786-0 renal was 8.59 µM; in the experiment on MDA-MB-231 breast it was 1.43 µM; with KM12 colon, 3.21 µM; in the experiment with SF-539 CNS it was 10.3 µM; with MOLT-4 leukemia it was 5.22 µM; with PC-3 prostate, 1.67 µM. Further, the GI50 in the experiment on SK-MEL-2 melanoma was 3.23 µM; in the experiment on SR leukemia, 2.99 µM; with OVCAR-3 ovarian it was 1.77 µM; in the experiment on CCRF-CEM leukemia it was 4.24 µM. The TGI in the experiment with 786-0 renal was more than 100 µM; in the experiment with MDA-MB-231 breast, 20.8 µM; in the experiment with KM12 colon, more than 100 µM; with SF-539 CNS it was more than 100 µM; in the experiment with MOLT-4 leukemia it was more than 100 µM; in the experiment with PC-3 prostate, more than 100 µM. Moreover, the TGI with SK-MEL-2 melanoma amounted to 21.8 µM; in the experiment on SR leukemia, 23.4 µM; in the experiment on OVCAR-3 ovarian, 6 µM; in the experiment with CCRF-CEM leukemia, 35.7 µM.
